Data as given in US7307063B2, “Melanocortin metallopeptides for treatment of sexual dysfunction” (Palatin Technologies, Inc., priority 2001, dated 2007).
Non-standard residues stand in square brackets, D forms with d. Nle = CCCC[C@H](N)C(=O)O

Experiments:
MC1-R = biological target: T1, MC1-R (Mus musculus, UniProt Q01727); test: Competitive binding assay: inhibition of 125I-NDP-α-MSH binding to membranes from B16-F10 mouse melanoma cells; conditions: Table 6; 1 μM; mean of triplicate
T1 construct: MC1-R membranes were isolated from B16—F10 mouse melanoma cells; endogenous in cells; host or cells: B16-F10 mouse melanoma cells
T1 sequence (Q01727 whole entry): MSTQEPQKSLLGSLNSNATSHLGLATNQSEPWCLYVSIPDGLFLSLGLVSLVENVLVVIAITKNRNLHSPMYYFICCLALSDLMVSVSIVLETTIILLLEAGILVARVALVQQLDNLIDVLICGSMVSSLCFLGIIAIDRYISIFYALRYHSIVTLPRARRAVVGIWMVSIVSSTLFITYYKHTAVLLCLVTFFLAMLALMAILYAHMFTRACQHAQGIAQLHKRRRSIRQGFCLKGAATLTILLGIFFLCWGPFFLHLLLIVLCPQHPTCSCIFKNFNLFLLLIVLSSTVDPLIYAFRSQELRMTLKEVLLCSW
In short: (§1)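 Rhenium-complexed metallopeptides at a chosen single concentration competed with 125I-NDP-α-MSH on membranes of HEK-293 expressing cloned human MC receptors or, for MC1-R, B16-F10 mouse melanoma cells. Percent inhibition normalized to specific binding (nonspecific defined with 1 μM α-MSH); means of triplicates.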

MC4-R = biological target: T2, MC4-R (Homo sapiens, UniProt P32245); test: Competitive binding assay: inhibition of 125I-NDP-α-MSH binding to HEK-293 membranes with cloned human receptor subtype 4; conditions: Table 6; 1 μM; mean of triplicate
T2 construct: expressed in transfected cells; host or cells: HEK-293
T2 sequence (P32245 whole entry): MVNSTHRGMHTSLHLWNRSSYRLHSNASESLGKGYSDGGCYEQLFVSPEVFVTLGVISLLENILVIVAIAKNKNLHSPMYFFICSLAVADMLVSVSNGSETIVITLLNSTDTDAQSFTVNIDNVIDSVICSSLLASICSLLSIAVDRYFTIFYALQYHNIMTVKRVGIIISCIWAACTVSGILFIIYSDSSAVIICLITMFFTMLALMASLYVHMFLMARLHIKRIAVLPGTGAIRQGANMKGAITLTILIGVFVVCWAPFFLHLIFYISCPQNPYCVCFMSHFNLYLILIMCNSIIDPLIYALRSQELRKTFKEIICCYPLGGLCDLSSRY
In short: as §1

hMC5-R = biological target: T3, hMC5-R (Homo sapiens, UniProt P33032); test: Competitive binding assay: inhibition of 125I-NDP-α-MSH binding to HEK-293 membranes with cloned human receptor subtype 5; conditions: Table 6; 1 μM; mean of triplicate
T3 construct: expressed in transfected cells; host or cells: HEK-293
T3 sequence (P33032 whole entry): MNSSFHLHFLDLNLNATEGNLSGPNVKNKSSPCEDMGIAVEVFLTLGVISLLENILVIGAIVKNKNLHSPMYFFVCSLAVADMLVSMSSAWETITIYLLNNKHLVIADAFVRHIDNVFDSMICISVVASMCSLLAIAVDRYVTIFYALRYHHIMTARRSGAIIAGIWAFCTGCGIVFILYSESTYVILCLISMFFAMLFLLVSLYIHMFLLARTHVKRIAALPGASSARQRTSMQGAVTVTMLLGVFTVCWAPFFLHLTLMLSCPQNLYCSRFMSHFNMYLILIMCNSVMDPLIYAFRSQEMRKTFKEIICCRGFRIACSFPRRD
Method: (§2) Rhenium-complexed metallopeptides of the formulas given in Table 1 were prepared, with the metallopeptides complexed with rhenium using the rhenium transfer agent ReOCl3(PPh3)2 in the presence of 1,8-Diazabicyclo[5,4,0] undec-7-ene as a base, as disclosed in International Application PCT/US00/16396, filed Jun. 14, 2000, Melanocortin Metallopeptide Constructs, Combinatorial Libraries and Applications, incorporated by reference herein. Affinities of compounds were measured using membranes from HEK-293 cells containing cloned human melanocortin receptor subtypes 3, 4 and 5. MC1-R membranes were isolated from B16—F10 mouse melanoma cells. The assay tube also contained a chosen concentration of the test peptide of this invention, complexed to a rhenium metal ion as indicated, for determining its efficacy in inhibiting the binding of ^125I-NDP-α-MSH to its receptor. Non-specific binding was measured by complete inhibition of binding of ^125I-NDP-α-MSH in the assay with the presence of 1 μM α-MSH. 100% specific binding was defined as the difference in radioactivity (cpm) bound to cell membranes in the absence and presence of 1 μM α-MSH. The cpm obtained in presence of test compounds were normalized with respect to 100% specific binding to determine the percent inhibition of ^125I-NDP-α-MSH binding.
(§3) Peptide sequences set forth in Table 6 were prepared using conventional synthetic means. The resulting sequences were rhenium-complexed to form metallopeptides, with the metallopeptides complexed with rhenium using the rhenium transfer agent ReOCl3(PPh3)2 in the presence of 1,8-Diazabicyclo[5,4,0] undec-7-ene as a base. Percent inhibition was determined as in Example 1 using the Re-complexed metallopeptides, using the same methods as described therein. All measures are means of triplicate determinations.

hMC2-R = biological target: T4, hMC2-R (Homo sapiens, UniProt P41968); test: Competitive binding assay of additional compounds, Table 6 hMC2-R; conditions: 1 μM, mean of triplicate
T4 construct: expressed in transfected cells; host or cells: HEK-293
T4 sequence (P41968 whole entry): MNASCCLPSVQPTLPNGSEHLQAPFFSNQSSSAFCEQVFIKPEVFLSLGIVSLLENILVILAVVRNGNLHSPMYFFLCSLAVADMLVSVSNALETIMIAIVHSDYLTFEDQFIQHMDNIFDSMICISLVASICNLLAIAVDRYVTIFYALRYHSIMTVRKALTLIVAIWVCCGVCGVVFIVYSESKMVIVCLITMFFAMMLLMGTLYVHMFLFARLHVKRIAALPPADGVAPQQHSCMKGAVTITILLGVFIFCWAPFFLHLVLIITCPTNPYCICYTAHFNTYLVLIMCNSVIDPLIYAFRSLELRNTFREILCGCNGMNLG
Method: [The source words this procedure for another target and reports this target under the same test.] as §2, §3

Row | Substance | % Inhibition of Binding MC1-R (MC1-R) | % Inhibition of Binding hMC4-R (MC4-R) | % Inhibition of Binding hMC5-R (hMC5-R) | % Inhibition of Binding hMC2-R (hMC2-R)
1 | Ac-Nle-Ala-Ala-D-Phe-Arg-Cys-Trp-NH2 (Ac-[Nle]AA[dF]RCW-NH2; not fully specified; printed as Ac-Nle-Ala-Ala-D-Phe-Arg-Cys-Trp-NH2) | 34% | 12% | 20% | 9%
2 | Ac-Nle-Ala-Arg-D-Phe-Arg-Cys-Trp-NH2 (Ac-[Nle]AR[dF]RCW-NH2; not fully specified; printed as Ac-Nle-Ala-Arg-D-Phe-Arg-Cys-Trp-NH2) | 92% | 39% | 59% | 26%
3 | Ac-Nle-Ala-D-Tyr-D-Phe-Arg-Cys-Trp-NH2 (Ac-[Nle]A[dY][dF]RCW-NH2; not fully specified; printed as Ac-Nle-Ala-D-Tyr-D-Phe-Arg-Cys-Trp-NH2) | 15% | 1% | 0% | 0%
4 | Ac-Nle-Ala-His-D-Phe-Arg-D-Nal 1′-Cys-NH2 | 93% | 47% | 5% | 3%
5 | Ac-Nle-Ala-His-D-Phe-Arg-D-Nal 2′-Cys-NH2 | 100% | 90% | 54% | 0%
6 | Ac-Nle-Ala-His-D-Phe-Arg-His-Cys-NH2 ({Ac-Nle-Ala-H2N}-[dF]RHC-NH2; not fully specified; printed as Ac-Nle-Ala-His-D-Phe-Arg-His-Cys-NH2) | 58% | 1% | 0% | 0%
7 | Ac-Nle-Ala-His-D-Phe-Arg-Nal 1′-Cys-NH2 | 95% | 65% | 82% | 22%
8 | Ac-Nle-Ala-His-D-Phe-Arg-Nal 2′-Cys-NH2 | 99% | 89% | 83% | 40%
9 | Ac-[Nle]AH[dF]R[dH]C-NH2 | 52% | 16% | 0% | 0%
10 | Ac-[Nle]AT[dF]RCW-NH2 | 30% | 11% | 7% | 8%
11 | Ac-[Nle]AW[dF]RCW-NH2 | 45% | 9% | 62% | 0%
12 | Aic-D-Phe-Arg-Trp-Cys-NH2 | 9% | 18% | 38% | 4%
13 | Amb-D-Phe-Arg-Cys-Trp-NH2 | 39% | 0% | 1% | 0%
14 | D-Igl-D-Nal 2′-Arg-Cys-NH2 | 0% | 8% | 41% | 1%
15 | D-Igl-D-Nal 2′-Arg-Trp-Cys-NH2 | 27% | 97% | 85% | 73%
16 | D-Nal 1′-D-Phe-Arg-Cys-Trp-NH2 | 22% | 8% | 48% | 0%
17 | D-Nal 1′-D-Phe-Arg-Trp-Cys-NH2 | 3% | 13% | 43% | 0%
18 | D-Tiq-D-Phe-Arg-Cys-Trp-NH2 | 43% | 13% | 39% | 3%
19 | NH2(CH2)6CO-Ser(Bzl)-D-Nal 2′-Arg-Trp-Cys-NH2 | 14% | 96% | 95% | 69%

More lines, now with the values ahead:

Row | % Inhibition of Binding MC1-R (MC1-R) | % Inhibition of Binding hMC4-R (MC4-R) | % Inhibition of Binding hMC5-R (hMC5-R) | % Inhibition of Binding hMC2-R (hMC2-R) | Substance
20 | 61% | 0% | 9% | 0% | Ac-Ala-His-D-Phe-Arg-Cys-Trp-NH2 ({Ac-Ala-H2N}-[dF]RCW-NH2; not fully specified; printed as Ac-Ala-His-D-Phe-Arg-Cys-Trp-NH2)
21 | 75% | 0% | 31% | 0% | Ac-Leu-His-D-Phe-Arg-Cys-Trp-NH2 ({Ac-Leu-H2N}-[dF]RCW-NH2; not fully specified; printed as Ac-Leu-His-D-Phe-Arg-Cys-Trp-NH2)
22 | 0% | 12% | 0% | 3% | Ac-Nle-Ala-Glu-D-Phe-Arg-Cys-Trp-NH2 (Ac-[Nle]AE[dF]RCW-NH2; not fully specified; printed as Ac-Nle-Ala-Glu-D-Phe-Arg-Cys-Trp-NH2)
23 | 58% | 16% | 71% | 0% | Ac-[Nle]AF[dF]RCW-NH2
24 | 81% | 18% | 87% | 4% | Ac-[Nle]AL[dF]RCW-NH2
25 | 66% | 0% | 44% | 0% | Ac-[Nle]AY[dF]RCW-NH2
26 | 77% | 2% | 28% | 0% | Ac-[Nle]H[dF]RCW-NH2
27 | 59% | 21% | 71% | 0% | Aic-D-Phe-Arg-Cys-Trp-NH2
28 | 28% | 22% | 2% | 0% | Allo-Thr-D-Phe-Arg-Trp-Cys-NH2
29 | 39% | 0% | 5% | 0% | Amb-D-Phe-Arg-Trp-Cys-NH2
30 | 7% | 4% | 8% | 0% | Amc-D-Phe-Arg-Cys-Trp-NH2
31 | 50% | 0% | 52% | 7% | D-Nal 2′-D-Phe-Arg-Cys-Trp-NH2
32 | 11% | 5% | 13% | 0% | D-Nal 2′-D-Phe-Arg-Trp-Cys-NH2
33 | 5% | 34% | 23% | 0% | D-Tiq-D-Phe-Arg-Trp-Cys-NH2
34 | 24% | 62% | 79% | 37% | Hept-Ser(Bzl)-D-Phe(4′-Cl)-Arg-D-Trp-Cys-NH2
35 | 85% | 88% | 100% | 85% | Hept-Ser(Bzl)-D-Phe(4′-Cl)-Arg-Trp-Cys-NH2
36 | 0% | 4% | 19% | 0% | Idc-D-Phe-Arg-Cys-Trp-NH2
37 | 12% | 11% | 0% | 0% | Idc-D-Phe-Arg-Trp-Cys-NH2
38 | 22% | 95% | 100% | 70% | NH2-(CH2)6-CO-Ser(Bzl)-D-Nal 2′-Arg-Nal 2′-Cys-NH2
